Results from patent US8362203B2, “Non-natural peptides as models for the development of antibiotics” (priority 2009, dated 2013).
“Also recorded” adds a separate entry of the source. Marks after values point to notes of the source that are not given here. Strand notation (5' to 3'): a small letter for the sugar, then the base; units joined by * are phosphorothioate-linked, units joined directly phosphodiester-linked; [ ] holds rarer units or linkages, { } end groups; capitals alone tell only the bases. [m2G] = N2-methylguanosine (ribo); [5mC] = 5-methylcytosine; r = 2'-OH (RNA)

How the values were obtained:
[1] = test system: GFP translation (Escherichia coli S30 extracts); test: Coupled in vitro transcription-translation inhibition assay (GFP fluorescence); assay type: biochemical; settings: for inhibitory effect on coupled in vitro transcription-translation (in words): peptide 300 μM to 2 mM, GFP fluorescence 0 min to 2 h, 37° C.
Description: Peptides with high frequency in the screening against wild-type h31 were synthesized. The peptides (DIRTQRE (SEQ ID NO: 6), CVRPFAL (SEQ ID NO: 4), FVRPFAL (SEQ ID NO: 7), TLWDLIP (SEQ ID NO: 3) and TYLPWPA (SEQ ID NO: 2)), were synthesized and their sequences were determined from the phage display experiments. The inhibitory effects of these peptides on cellular processes were determined by in vitro coupled transcription-translation inhibition assay. The PURExpress™ in vitro protein synthesis kit # E6800S from New England Biolabs (NEB) was used for this purpose. This kit contains all of the necessary components for the transcription and translation, except for the DNA template. The amounts of reagents from the kit were added according to the NEB manual. We used a DNA template for GFP (pRSETEmGFP plasmid) at a concentration of 10 μg/ml in a 15 μl of reaction volume. Different concentrations of peptides were added, ranging from 300 μM to 2 mM. The DNA template was added only after mixing of the peptides or streptomycin so that they can bind to their target region. For the control, streptomycin was added at a final concentration of 300 μM. The reaction was incubated in 384-well, Costar, clear-well, black plates and in situ incubated at 37° C. in the fluorometer. The amount of GFP translation was monitored at different intervals of time from 0 min to 2 h by fluorescence (excitation at 487 nm, emission at 509 nm) using a Gemini XPS microplate spectrofluorometer, (Molecular Devices).
A cell-free translation assay was used to test the inhibitory effects of the peptides on protein synthesis. The pRSETEmGFP plasmid that was used as template has an EmGFP gene under control of the T7 promoter (FIG. 48). Upon transcription with T7 polymerase, EmGFP mRNA was formed and undergoes translation by ribosomes to produce the green fluorescent protein (GFP). The degree of inhibition on transcription and translation due to the presence of peptide could be determined by measuring the level of GFP fluorescence. Escherichia coli S30 extracts were used, which contained all of the necessary factors and supplements for translation. The rate of GFP translation in the presence or absence of peptide was measured at different time intervals.

[2] = UV thermal melting of helix 31 RNA hairpin constructs (van't Hoff analysis); assay type: physicochemical; settings: for ΔG° 50: standard error est. 3% (±0.2 kcal/mol)
Description: Thermal melting studies. The absorbance versus temperature profiles were obtained on an Aviv 14DS UV-vis spectrophotometer with a five-cuvette thermoelectric controller. Microcuvettes with two different pathlengths, 0.1 and 0.2 cm (60 and 120 μL volumes, respectively), were employed. Each set of measurements was done in triplicate. The buffer used in each experiment contained 15 mM NaCl, 20 mM sodium cacodylate, and 0.5 mM Na2EDTA (pH 7.0) unless otherwise noted. Each oligomer was dissolved in a specific volume to yield an absorbance reading just below 2.0 in a 0.1 cm pathlength cuvette. The RNA concentrations were determined from the absorbance values (260 nm) at 95° C. The absorbance data were collected at […] from 0 to 95° C. with a constant heating rate of 0.5° C./min. Thermodynamic parameters were obtained from the absorbance versus temperature profiles using the MELTWIN v. 3.5 melting curve program.^1 This program performs a van't Hoff analysis, assuming a two-state model for the transition between a native and a denatured (random coil) structure of a hairpin.
Absorbance versus temperature profiles (melting curves) were obtained at pH 7.0 for all four RNA constructs. They were analyzed in terms of ΔG°37, ΔG°50, ΔH°, ΔS°, and melting temperature (Tm),^1, 2 Representative normalized UV melting curves of the modified RNAs compared to the unmodified RNA, taken in 15 mM NaCl, 20 mM sodium cacodylate, 0.5 mM Na2EDTA (pH 7.0), are shown in FIG. 11.
The curves represent an average of five sets of data at different concentrations of RNA obtained from a five-cuvette thermoelectric controller. The melting curves for the unmodified RNA (ECh31UNMOD, blue line in panels A-C) are compared to those for the modified RNAs (pink lines: (A) ECh31WT, (B) ECh31M2G, and (C) ECh31M5C). All of the melting curves were normalized at 95° C. and absorbance measurements were taken at 260 nm (see materials and methods, section 4.5).
The melting curves are biphasic for all four RNAs (FIG. 12) with transitions at 0 to 35° C. and 40 to 80° C. […] The higher melting transitions were concentration independent, consistent with unimolecular unfolding of the hairpin structure.^3 The corresponding thermodynamic parameters for the four RNAs are given in Table 2. […] The observed order of stability of the RNAs is ECh31UNMOD>ECh31M2G>ECh31M5C>ECh31WT^a A conservative estimate of the standard error for ΔG°50 is 3% (.+−.0.2 kcal/mol)^4
The RNA samples were analyzed as five different dilutions per experiment and UV melts were also performed in triplicate for each construct. AU0-AU4 represent profiles corresponding to different dilutions of each RNA taken in 15 mM NaCl, 20 mM sodium cacodylate, 0.5 mM Na2EDTA at pH 7.0. Experiments in K^+ buffer (15 mM KCl, 20 mM cacodylic acid, 20 mM Tris [basic form], 0.5 mM Na2EDTA, pH 7.0) gave similar results (Table 3, FIG. 13).
Thermal melting studies. Preliminary experiments were performed with the unmodified human analogue (HSh31UNMOD) containing an additional G-C base-pair (denoted by g-c) similar to that of the ECh31UNMOD construct (FIG. 28).
Thermal melting studies on the human unmodified helix 31 containing the altered sequence. The absorbance versus temperature profiles were obtained at pH 7.0 in low salt conditions (35 mM Na^+) for the new analogue of helix 31 (HSh31ECstem) and analyzed in terms of the melting temperature (Tm), Δ°, ΔS° and ΔG°37. The melting curve for HSH31ECSTEM (green color curve) is biphasic with transitions at 0-35 and 45-80° C. (FIG. 37). The higher melting transition is concentration independent, consistent with unimolecular unfolding of a hairpin structure.

[3] = 15 mM NaCl, 20 mM sodium cacodylate, 0.5 mM Na2EDTA, pH 7.0
[4] = Table 2, 15 mM NaCl, 20 mM sodium cacodylate, 0.5 mM Na2EDTA, pH 7.0
[5] = KCl buffer (15 mM KCl, 20 mM cacodylic acid, 20 mM Tris, 0.5 mM Na2EDTA, pH 7.0)
[6] = Tables 3-5, NaCl buffer (15 mM NaCl, 20 mM sodium cacodylate, 0.5 mM EDTA, pH 7.0)

| Molecule | inhibitory effect on coupled in vitro transcription-translation (in words) [1] | ΔG° 50 [2, 3] | Tm [2, 4] [°C] | ΔG°37 [2, 4] [kcal/mol] | ΔH° [2, 4] [kcal/mol] | ΔS° [2, 4] [cal/K · mol] | Tm [2, 6] [°C] | ΔG°37 [2, 6] [kcal/mol] | ΔH° [2, 6] [kcal/mol] | ΔS° [2, 6] [cal/K · mol] | further results |
| --- | --- | --- | --- | --- | --- | --- | --- | --- | --- | --- | --- |
| DIRTQRE [compound 18, 7-mer peptide selected by phage display against helix 31 RNA] | did not inhibit transcription or translation even up to 2 mM; also recorded: least inhibitory effect | – | – | – | – | – | – | – | – | – | – |
| [H]/N=C(/N)N[C@H]1[C@H](O)[C@@H](O)[C@H](O[C@@H]2O[C@@H](C)[C@](O)(C=O)[C@H]2O[C@@H]2O[C@@H](CO)[C@H](O)[C@@H](O)[C@@H]2NC)[C@@H](N/C(N)=N\[H])[C@@H]1O [Streptomycin, reference compound] | – | – | – | – | – | – | – | – | – | – | GFP translation with positive control ([1]; 300 μM): no GFP translation was observed |
| ECh31M5C: 18-nt helix 31 RNA hairpin of E. coli 16S rRNA with m5C967 (GUUCGAUGCAACGCGAAC; RNA, [5mC] at 9, all phosphodiester, methylation of C not given here) | – | −0.6^a kcal/mol | 55 | -2.2 ± 0.1 | -40.5 ± 0.9 | −123.3 ± 3.1 | – | – | – | – | – |
| ECh31M2G: 18-nt helix 31 RNA hairpin of E. coli 16S rRNA with m2G966 (rGrUrUrCrGrArUr[m2G]rCrArArCrGrCrGrArArC) | – | −0.7^a kcal/mol | 56 | -2.4 ± 0.1 | -41.9 ± 1.1 | −127.5 ± 3.2 | – | – | – | – | – |
| TLWDLIP [compound 14, 7-mer peptide selected by phage display against helix 31 RNA] | greater inhibitory effects on in vitro protein synthesis than other peptides | – | – | – | – | – | – | – | – | – | – |
| CVRPFAL [compound 15, 7-mer peptide selected by phage display against helix 31 RNA] | greater inhibitory effects on in vitro protein synthesis than other peptides | – | – | – | – | – | – | – | – | – | inhibitory effect on coupled in vitro transcription-translation (in words) ([1]; listed as CVRPFAL): best inhibitory effects; also recorded: strong inhibitory effects |
| ECh31WT: doubly modified (m2G966, m5C967) h31 analogue, wild-type sequence of E. coli 16S rRNA helix 31 (GUUCGAUGCAACGCGAAC; RNA, [m2G] at 8, [5mC] at 9, all phosphodiester, methylation of C not given here) | – | −0.5^a kcal/mol | 56 | -2.1 ± 0.1 | -37.5 ± 2.2 | −114.4 ± 5.8 | 55.5 | -2.10 ± 0.07 | -37.26 ± 1.2 | −113.37 ± 3.6 | Tm [2, 5]: 54.7 °C; ΔG°37 [2, 5]: -2.13 ± 0.03 kcal/mol; ΔH° [2, 5]: -39.37 ± 1.2 kcal/mol; ΔS° [2, 5]: −120.08 ± 3.8 cal/K · mol |
| HSh31UNMOD: unmodified human helix 31 RNA analogue with additional G-C base-pair (GUUUGACUCAACACGGGC; unmodified RNA) | – | – | – | – | – | – | 44 | -0.6 | -29.4 ± 1.6 | −92.8 ± 5.4 | – |
| ECh31UNMOD: 18-nt unmodified RNA hairpin representing helix 31 (U960-A975) of E. coli 16S rRNA (GUUCGAUGCAACGCGAAC; unmodified RNA) | – | −0.9^a kcal/mol | 57 | -2.6 ± 0.1 | -44.1 ± 1.0 | −133.8 ± 3.0 | 57 | -2.6 ± 0.1 | -44.1 ± 1.0 | −133.8 ± 3.0 | – |
| FVRPFAL [compound 16, 7-mer peptide selected by phage display against helix 31 RNA] | best inhibitory effects; also recorded: strong inhibitory effects | – | – | – | – | – | – | – | – | – | – |
